Experiment [1] has as its system NK cells. The experiment can be described thus: NK cell increase rate by flow cytometry (FACS, CD3-FITC/CD56-PE). It counts as cell-based, human. The note with it: for NK (share of cells by FACS), Table 3 / NKT (share of cells by FACS), Table 3: 10 mg/L in NK cell culture medium of Example 1, 21 days. The protocol:
Flow Cytometry (FACS analysis) analysis was performed to confirm the NK cell increase rate. Specifically, NK cells were cultured for 21 days in a medium containing 10 mg/L each of Test Example 1, Example 1 (untreated), and Alloferon 1 to 4 in Example 1. Cells before and after culture were collected by centrifugation at 1,400 rpm for 5minutes, and the collected cells were washed twice using PBS. Then, the cells were suspended in 1 ml of PBS, and the number of living cells was measured through Trypan blue staining. The cells were dispensed into FACS tubes at 1×10^6 cells/tube, and 2 ml of PBS was added. Then, centrifugation was performed at 400 g and 4° C. for 5 minutes, and the supernatant excluding cells was removed. 100 μl of 1% albumin was added to the remaining cell pellet, and antibodies were added and mixed with PBS. NK cells were treated with antibodies (CD3-FITC, CD56-PE), reacted in a light shielding state for 30 minutes, and then the cells were washed twice with PBS. NK cells were suspended in an appropriate amount of PBS, and then the data were compared and analyzed using FACSVerse (BD Biosciences, San Diego, CA, USA).
(In general: A flow cytometer gives signals particle by particle.)

Experiment [2] relates to NK cells. In words: NK cell activation receptor (NKp30, NKp44, NKp46) and perforin expression by FACS. It counts as cell-based, human. The conditions noted are these: for NKp30 expression / NKp44 expression / NKp46 expression / Perforin expression: NK cells proliferated 21 days, 10 mg/L in NK medium. How it is done: Based on the results of Test Example 3, receptor expression was confirmed and compared to measure the activity of NK cells. Specifically, as in Test Example 3, NK cells were cultured in each medium, and in order to measure the activity of NK cells proliferated for 21 days, the proliferated NK cells were isolated by flow cytometry. The expression of activating markers for these cells was further confirmed. The cultured NK cells were washed twice using PBS, then dispensed into a FACS tube at 1×10^6 cells/tube, and 2 ml of PBS was added. Then, centrifugation was performed at 400 g and 4° C. for 5 minutes, and the supernatant excluding cells was removed. 100 μl of 1% albumin was added to the remaining cell pellet, sorted using antibodies (CD3-FITC, CD56-PE) together with PBS, and then isolated according to surface markers. In addition to the isolated cells, NK cells were treated with antibodies (Anti-NKp30, anti-NKp44, anti NKp46, and Perforin) to confirm the expression of activating receptors (NKp30, NKp44, NKp46) and Perforin on the surface of NK cells, and reacted in a light shielding state for 30 minutes, and the cells were washed twice again using PBS. NK cells were suspended in an appropriate amount of PBS, and the data were compared and analyzed using FACS AriaII (BD Biosciences, San Diego, CA, USA).

Experiment [3] relates to NK cells. The experiment can be described thus: IFN-gamma secretion of NK cells (Human IFN-y ELISA). It counts as cell-based. The conditions noted are these: with IL-2 10 mg/L in typical medium, 48 hours; for IFN-r, Table 6: alloferon 100 mg/L. The protocol:
IFN-r is an indicator of the activity of NK cells, and it is considered as the secretion amount is higher, the cytotoxicity is higher and the differentiation ability increases.
IFN-y secreted from NK cells was measured in the culture medium in which the cells were cultured, using a Human IFN-y ELISA kit (BD Biosciences, San Diego, CA, USA). 100 μl of capture antibody diluted in coating buffer was added to each well of a 96-well plate for ELISA, then sealed and left overnight at 4° C. It was washed three times using wash buffer, and all remaining buffer was removed. 200 μl of assay diluent was added to each well and reacted at room temperature for 1 hour for blocking. It was washed again three times using wash buffer, and all remaining buffer was removed. 100 μl of each prepared IFN-y standard and culture supernatants were added, the plate was sealed, and the reaction was performed at room temperature for 2 hours. It was washed 5 times using wash buffer, and all remaining buffer was removed. 100 μl of Working detector (Detection Antibody+SAv-HRP reagent) was added to each well, the plate was sealed, and reaction was performed at room temperature for 1 hour. It was washed 7 times using wash buffer, and all remaining buffer was removed. 100 μl of Substrate solution was added to each well and the reaction was performed at room temperature while shielding light for 30 minutes. 50 μl of Stop solution was added to each well, and the absorbance was measured at 450 nm within 30 minutes.
Background: ELISA stands for enzyme-linked immunosorbent assay.

In experiment [4] the test system is NK cells. In words: Cell proliferation assay (incorporation of [3H]-thymidine), NK cell culture with added alloferon. It counts as cell-based, human. The note with it: 0.1 to 100 mg/L tested, cultured 21 days, FIG. 3. How it is done: 30 ml of blood was collected from a human blood donor, RosetteSep NK enrichment antibody cocktail (50 ul/ml) was added thereto, and then diluted 1:1 v/v with phosphate buffer solution (PBS). The blood was centrifuged at 1600 rpm for 20 minutes using a density gradient centrifugation (Ficoll-Plaque) to separate the cell layer containing NK cells. The process of washing and centrifuging this with PBS was repeated twice. Then, the number of cells was counted by staining with trypan blue, and the average number of cells obtained was 1.6˜3.0×10^5 cell/ml, and the cells were cultured in NK cell culture medium.
The NK cell culture medium used was a combination of various substances that were conventionally known to be necessary for NK culture. […] This was used as the NK cell culture medium of Example 1, to which alloferon was further mixed and used at 0.1 to 100 mg/L as needed. […]
Specifically, NK cells (1×10^5 cells/ml) were placed in 96-well plates, and then treated with 10 mg/L each of alloferons 1 to 4 in the NK cell culture medium of Example 1, and then cultured in an environment at 5% CO2, 37° C. for 48 hours or 21 days. […] After that, the radioactivity was measured using 1450 MicroBeta TriLux (PerkinElmer Life and Analytical Sciences).

Experiment [5] deals with NK cells. The experiment can be described thus: Co-treatment of alloferon and other interleukins, NK cell proliferation. Type of experiment: cell-based, human. The conditions noted are these: only alloferon 1 added at 10 mg/L, 21 days, FIG. 4. The protocol:
Specifically, NK cells (1×10^5 cells/ml) were placed in 96-well plates, and then treated with 10 mg/L each of alloferons 1 to 4 in the NK cell culture medium of Example 1, and then cultured in an environment at 5% CO2, 37° C. for 48 hours or 21 days. After the culture, [^3H]-thymidine (37 mBq) was added at 0.2 μCi per well and cultured for 8 hours. Both cells and medium were transferred to a glass fiber filter (size 90.120 mm; Wallac, Turkr, Finland) using a 96-well harvester. After drying the filter, a scintillator sheet (Meltilex, Wallac) was melted to coat the filter. After that, the radioactivity was measured using 1450 MicroBeta TriLux (PerkinElmer Life and Analytical Sciences).
In order to identify factors that imparts the influence other than alloferon during NK cell culture, the NK cell proliferation effect was confirmed after co-treatment with various combinations of interleukins. Except for the medium composition, the NK cell culture method was the same as in Test Example 1, and the cells were cultured for 21 days (*** random period).

Where [6] appears, read: after culture (day 21), 10 mg/L in NK cell culture medium of Example 1.

Regarding “GVSGHGQHGVHG (engineered from known peptides) [Alloferon 2]”, in experiment [1], the “NK (share of cells by FACS), Table 3” value amounted to 73.8% and the “NKT (share of cells by FACS), Table 3” value was found to be 12.4%. In experiment [2], this sequence came in with an NKp30 expression of 53.2%, an NKp44 expression of 50.9%, an NKp46 expression of 78.6% and a Perforin expression of 99.9%. In addition, the “IFN-r, Table 6” value in experiment [3] was 4.87 µg/L.
With “HGVSGHGQHGVHG (engineered from known peptides) [Alloferon 1]”, in experiment [4], the “concentration at which the maximum amount of NK cells was reached” value was 10 mg/L. In experiment [5], the NK cell proliferation entry is recorded as “NK cell proliferation was induced”. In experiment [1], the “NK (share of cells by FACS), Table 3” value is recorded as 74.7% and the “NKT (share of cells by FACS), Table 3” value is reported as 6.5%. Further, in experiment [1] (10 mg/L, day 0 to day 21), the “increase in number of NK cells compared to typical medium (RPMI)” value is 1,430 times, the “increase of NK cells” value is given as 8,790 fold and the “increase of NKT cells” value was 560 fold. For the same sequence, in experiment [1] (setting [6]), the “NK (share of cells by FACS)” value is given as 74.7% and the “NKT (share of cells by FACS)” value is on record as 6.5%. In experiment [1] (before culture (day 0)), the “NK (share of cells by FACS)” value is 12.2% and the “NKT (share of cells by FACS)” value is recorded as 1.7%. Besides, the “NK activity versus typical medium or NK cell culture medium of Example 1” value in experiment [2] (21 days culture, FIG. 6 / Table 4) is given as “higher NK activity”. For the same sequence, in experiment [2], the NKp30 expression was determined as 57.4%, the NKp44 expression worked out at 60.3%, the NKp46 expression is on record as 88.4% and the Perforin expression was determined as 99.8%. For the same sequence, the “IFN-r, Table 6” value in experiment [3] was 6.32 µg/L. This sequence also returned an IFN-r in experiment [3] (alloferon 1 0.1 mg/L) of 0.13 µg/L. The sequence also displayed an IFN-r in experiment [3] (alloferon 1 5 mg/L) of 1.82 µg/L. In addition, the IFN-r in experiment [3] (alloferon 1 10 mg/L) is 2.33 µg/L. The sequence also displayed an IFN-r in experiment [3] (alloferon 1 50 mg/L) of 4.86 µg/L. Besides, the IFN-r in experiment [3] (alloferon 1 100 mg/L) came to 6.32 µg/L.
For the sequence “SGHGQHGV (engineered from known peptides) [Alloferon 3]”, in experiment [1], the “NK (share of cells by FACS), Table 3” value came out at 69.7% and the “NKT (share of cells by FACS), Table 3” value is listed as 13.2%. In experiment [2], this sequence returned an NKp30 expression of 47.8%, an NKp44 expression of 51.3%, an NKp46 expression of 69.1% and a Perforin expression of 90.4%. Further, the “IFN-r, Table 6” value in experiment [3] was 3.31 µg/L.
With “VSGHGQHGVH (engineered from known peptides) [Alloferon 4]”, in experiment [1], the “NK (share of cells by FACS), Table 3” value is reported as 71.5% and the “NKT (share of cells by FACS), Table 3” value is given as 8.4%. In experiment [2], the NKp30 expression was 61.1%, the NKp44 expression worked out at 68.2%, the NKp46 expression is 82.5% and the Perforin expression amounted to 99.8%. Besides, in experiment [3], the “IFN-r, Table 6” value worked out at 5.84 µg/L.

The values are drawn from patent US20250109381A1, “COMPOSITION FOR CULTRING NK CELLS, COMPRISING ALLOFERON, AND METHOD FOR CULTURING NK CELLS USING SAME” (NK MEDICS INC., priority 2022, published 2025).
